According to paper PMC10436550, “Subacute toxicity evaluations of LPM3480392 in rats, a full µ-opioid receptor biased agonist” (Frontiers in Pharmacology, 2023):
Read-outs that look alike come from different tables or passages of the source.

Experiments:
µ-opioid receptor (MOR) = tested on: µ-opioid receptor (MOR); parameters: method as in Yang et al., 2022; conditions: ref Yang et al., 2022, cited from earlier work
rats = assay: Spontaneous withdrawal test in rats; type: in vivo, rat; conditions: iv 0.3 to 1.8 mg/kg/day for 30 consecutive days; data not shown
Experimental: However, we have conducted the spontaneous withdrawal test in rats in 2019 at WCFP (data not shown in this manuscript). The rats were intravenously injected with LPM3480392 injection from 0.3 to 1.8 mg/kg/day for 30 consecutive days. […] There were no apparent abnormalities in body weights of female rats in LPM3480392 injection groups during dosing and recovery phases. The effects of LPM3480392 on body weight in males or females in the spontaneous withdrawal test are similar to those in the subacute toxicity study in rats.

[1] = Toxicokinetics, plasma LPM3480392 after intravenous administration; type: in vivo, Sprague Dawley (SD) rats; conditions: for concentration at 2 min / AUC(0-t): Sprague-Dawley, rat, plasma; for concentration at 2 min: intravenous; for AUC(0-t): iv
Experimental: Blood samples from animals in LPM3480392 groups were collected at predose and 2 min, 30 min, 1 h and 4 h postdose of the 1st dosing on Days 1 and 28; at 2 min and 4 h postdose of the 2nd dosing on Days 1 and 28; at 2 min, 1 h and 4 h postdose the 3rd dosing on Days 1 and 28. Animals in control group were sampled at predose and 2 min postdose of the 1st dosing on Days 1 and 28. Approximately 0.36 mL of blood was collected from the jugular vein of surviving TK animals at each time point. Whole blood samples were anticoagulated with EDTA-K2 and centrifuged at 2°C–8°C and 1800 × g for 10 min. The harvested plasma was stored below −66°C before the analysis. LC-MS/MS methods (liquid chromatograph/mass spectrometer) were used to detect concentrations of LPM3480392 at each time point. TK parameters (AUC, Cmax, Tmax) were calculated by Phoenix WinNonlin (Pharsight) 8.2. The detection instruments include ultra-performance liquid chromatography (Waters, United States ACQUITY UPLC I -CLASS) and triple quadrupole tandem mass spectrometer (Waters, United States, Xevo TQ-S).

SMILES: Fc1ccc([C@]2(CCNCc3cccc(Cl)c3)CCO[C@]3(CCOC3)C2)nc1 [LPM3480392]
- Emax, β-arrestin-2 recruitment activity (µ-opioid receptor (MOR)): 1.6%
- EC50 (µ-opioid receptor (MOR); read-out: EC50, β-arrestin-2 recruitment activity): > 30 µM
- Physical dependence after spontaneous withdrawal (rats): Physical dependence was induced
- Withdrawal behaviours reversed to normal, Recovery day (rats): 6
- Accumulation after 28-day repeated dosing ([1]; 0.6–2.4 mg/kg/day): No accumulation
- Gender difference of mean AUC0–12h in plasma ([1]; 0.6–2.4 mg/kg/day): no apparent gender difference
- concentration at 2 min ([1]; both sexes, 0.6 mg/kg/day, 0.6 mg/kg/day iv, 1st dosing day, F + M, read-out: C2min (The 1st dosing)): 88.3 ± 18.8 ng/mL
- concentration at 2 min ([1]; both sexes, 0.6 mg/kg/day, 0.6 mg/kg/day iv, 1st dosing day, F + M, read-out: C2min (The 2nd dosing)): 68.4 ± 12.8 ng/mL
- concentration at 2 min ([1]; both sexes, 0.6 mg/kg/day, 0.6 mg/kg/day iv, 1st dosing day, F + M, read-out: C2min (The 3rd dosing)): 60.1 ± 10.4 ng/mL
- concentration at 2 min ([1]; both sexes, 0.6 mg/kg/day, 0.6 mg/kg/day iv, 28th dosing day, F + M, read-out: C2min (The 1st dosing)): 87.2 ± 14.7 ng/mL
- concentration at 2 min ([1]; both sexes, 0.6 mg/kg/day, 0.6 mg/kg/day iv, 28th dosing day, F + M, read-out: C2min (The 2nd dosing)): 75.4 ± 10.2 ng/mL
- concentration at 2 min ([1]; both sexes, 0.6 mg/kg/day, 0.6 mg/kg/day iv, 28th dosing day, F + M, read-out: C2min (The 3rd dosing)): 73.9 ± 10.9 ng/mL
- concentration at 2 min ([1]; both sexes, 1.2 mg/kg/day, 1.2 mg/kg/day iv, 1st dosing day, F + M, read-out: C2min (The 1st dosing)): 175 ± 18.6 ng/mL
- concentration at 2 min ([1]; both sexes, 1.2 mg/kg/day, 1.2 mg/kg/day iv, 1st dosing day, F + M, read-out: C2min (The 2nd dosing)): 155 ± 29.4 ng/mL
- concentration at 2 min ([1]; both sexes, 1.2 mg/kg/day, 1.2 mg/kg/day iv, 1st dosing day, F + M, read-out: C2min (The 3rd dosing)): 148 ± 27 ng/mL
- concentration at 2 min ([1]; both sexes, 1.2 mg/kg/day, 1.2 mg/kg/day iv, 28th dosing day, F + M, read-out: C2min (The 1st dosing)): 179 ± 23.2 ng/mL
- concentration at 2 min ([1]; both sexes, 1.2 mg/kg/day, 1.2 mg/kg/day iv, 28th dosing day, F + M, read-out: C2min (The 2nd dosing)): 140 ± 31 ng/mL
- concentration at 2 min ([1]; both sexes, 1.2 mg/kg/day, 1.2 mg/kg/day iv, 28th dosing day, F + M, read-out: C2min (The 3rd dosing)): 149 ± 24.6 ng/mL
- concentration at 2 min ([1]; both sexes, 2.4 mg/kg/day, 2.4 mg/kg/day iv, 1st dosing day, F + M, read-out: C2min (The 1st dosing)): 330 ± 27.6 ng/mL
- concentration at 2 min ([1]; both sexes, 2.4 mg/kg/day, 2.4 mg/kg/day iv, 1st dosing day, F + M, read-out: C2min (The 2nd dosing)): 290 ± 23.1 ng/mL
- concentration at 2 min ([1]; both sexes, 2.4 mg/kg/day, 2.4 mg/kg/day iv, 1st dosing day, F + M, read-out: C2min (The 3rd dosing)): 229 ± 43.6 ng/mL
- concentration at 2 min ([1]; both sexes, 2.4 mg/kg/day, 2.4 mg/kg/day iv, 28th dosing day, F + M, read-out: C2min (The 1st dosing)): 351 ± 61.7 ng/mL
- concentration at 2 min ([1]; both sexes, 2.4 mg/kg/day, 2.4 mg/kg/day iv, 28th dosing day, F + M, read-out: C2min (The 2nd dosing)): 323 ± 89.2 ng/mL
- concentration at 2 min ([1]; both sexes, 2.4 mg/kg/day, 2.4 mg/kg/day iv, 28th dosing day, F + M, read-out: C2min (The 3rd dosing)): 320 ± 34.2 ng/mL
- AUC(0-t) ([1]; both sexes, 0.6 mg/kg/day, 0.6 mg/kg/day iv, 1st dosing day, F + M, read-out: AUC0–12h): 315 ± 43.7 ng·h/mL
- AUC(0-t) ([1]; both sexes, 0.6 mg/kg/day, 0.6 mg/kg/day iv, 28th dosing day, F + M, read-out: AUC0–12h): 349 ± 38.2 ng·h/mL
- AUC(0-t) ([1]; both sexes, 0.6 mg/kg/day, female + male, 0.6 mg/kg/day, Day 1, read-out: Mean AUC0–12h): 315 ng·h/mL
- AUC(0-t) ([1]; both sexes, 0.6 mg/kg/day, female + male, 0.6 mg/kg/day, Day 28, read-out: Mean AUC0–12h): 349 ng·h/mL
- AUC(0-t) ([1]; both sexes, 1.2 mg/kg/day, 1.2 mg/kg/day iv, 1st dosing day, F + M, read-out: AUC0–12h): 663 ± 114 ng·h/mL
- AUC(0-t) ([1]; both sexes, 1.2 mg/kg/day, 1.2 mg/kg/day iv, 28th dosing day, F + M, read-out: AUC0–12h): 680 ± 74.5 ng·h/mL
- AUC(0-t) ([1]; both sexes, 1.2 mg/kg/day, female + male, 1.2 mg/kg/day, Day 1, read-out: Mean AUC0–12h): 663 ng·h/mL
- AUC(0-t) ([1]; both sexes, 1.2 mg/kg/day, female + male, 1.2 mg/kg/day, Day 28, read-out: Mean AUC0–12h): 680 ng·h/mL
- AUC(0-t) ([1]; both sexes, 2.4 mg/kg/day, 2.4 mg/kg/day iv, 1st dosing day, F + M, read-out: AUC0–12h): 1250 ± 93.6 ng·h/mL
- AUC(0-t) ([1]; both sexes, 2.4 mg/kg/day, 2.4 mg/kg/day iv, 28th dosing day, F + M, read-out: AUC0–12h): 1490 ± 169 ng·h/mL
- AUC(0-t) ([1]; both sexes, 2.4 mg/kg/day, female + male, 2.4 mg/kg/day, Day 1, read-out: Mean AUC0–12h): 1250 ng·h/mL
- AUC(0-t) ([1]; both sexes, 2.4 mg/kg/day, female + male, 2.4 mg/kg/day, Day 28, read-out: Mean AUC0–12h): 1490 ng·h/mL
- Mean AUC0–12h ratio, Day 28 and Day 1 ([1]; female + male, 1.2 mg/kg/day): 1.0
- Mean AUC0–12h ratio, Day 28 and Day 1 ([1]; female + male, 2.4 mg/kg/day): 1.2
- concentration at 2 min ([1]; female, 0.6 mg/kg/day, 0.6 mg/kg/day iv, 1st dosing day, F, read-out: C2min (The 1st dosing)): 78.4 ± 10.9 ng/mL
- concentration at 2 min ([1]; female, 0.6 mg/kg/day, 0.6 mg/kg/day iv, 1st dosing day, F, read-out: C2min (The 2nd dosing)): 66.2 ± 12.4 ng/mL
- concentration at 2 min ([1]; female, 0.6 mg/kg/day, 0.6 mg/kg/day iv, 1st dosing day, F, read-out: C2min (The 3rd dosing)): 55.5 ± 8.94 ng/mL
- concentration at 2 min ([1]; female, 0.6 mg/kg/day, 0.6 mg/kg/day iv, 28th dosing day, F, read-out: C2min (The 1st dosing)): 90.1 ± 8.8 ng/mL
- concentration at 2 min ([1]; female, 0.6 mg/kg/day, 0.6 mg/kg/day iv, 28th dosing day, F, read-out: C2min (The 2nd dosing)): 73 ± 12.6 ng/mL
